Assay results as given in patent US20240327463A1, “ANTIBACTERIAL PRODUCTS” (priority 2017, published 2024).
≈ marks a conversion by molar mass, not a printed value. Bridge positions count the residues as written; N and C are the ends. Square brackets hold non-standard residues; d marks the D form. Peptide text beside a SMILES is read from it. I, II: the chains in the order shown. dNMeF = CN[C@H](Cc1ccccc1)C(=O)O

Legend:
MRSA = format: cell-based, Staphylococcus aureus
Outline: (§1)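 Broth dilution in Mueller Hinton (series to well 11), 37 °C incubation, repeated three times.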

E. coli = format: cell-based, Escherichia coli
Method: Bacteria were grown on Mueller Hinton broth (oxoid). All incubations were at 37° C. Dilutions were carried out using Mueller Hinton. […] This process was repeated up to well 11. […] This was repeated three times. […] Results are tabulated in the Examples.

A. baumannii = format: cell-based
Outline: as §1

MIC (MRSA) (MRSA): 8 µg/mL (≈ 3.92 µM)
MIC Ecoli (E. coli): 16 µg/mL (≈ 7.84 µM)
MIC A baumannii (A. baumannii): 2 µg/mL (≈ 0.981 µM)
Structure (SMILES): CC[C@@H](C)[C@@H](NC(=O)[C@@H](CCC(N)=O)NC(=O)[C@H](CCCCNC(=O)[C@H](CCCCN)NC(=O)[C@H](CCCCN)NC(=O)[C@H](CCCCN)NC(=O)[C@H](CCCCN)NC(=O)[C@H](CCCCN)NC(=O)[C@@H](N)CCCNC(=N)N)NC(=O)[C@@H](NC(=O)[C@@H](Cc1ccccc1)NC)[C@@H](C)CC)C(=O)N[C@H](C(=O)N[C@@H](CO)C(=O)N[C@H]1C(=O)N[C@@H](C)C(=O)N[C@@H](CC(C)C)C(=O)N[C@@H]([C@@H](C)CC)C(=O)O[C@H]1C)[C@@H](C)CC [Compound 54, Leu10-Teixobactin-3-(S3K-K5R) conjugate] (I: H-[dNMeF]IK[dQ][dI]IS[dT]ALI / II: H-RKKKKK; amide I:3-II:C; ester I:8-I:C)
